Source: ChEMBL document CHEMBL3608207, “Synthesis, characterization, evaluation and molecular dynamics studies of 5, 6-diphenyl-1,2,4-triazin-3(2H)-one derivatives bearing 5-substituted 1,3,4-oxadiazole as potential anti-inflammatory and analgesic agents” (Eur J Med Chem, 2015)

Columns and labels:
[1] = biological target: T1, Prostaglandin G/H synthase 1 (Ovis aries, UniProt P05979); assay: Inhibition of ovine COX1 by oxidized TMPD detection based colorimetric assay
T1 sequence (P05979 whole entry): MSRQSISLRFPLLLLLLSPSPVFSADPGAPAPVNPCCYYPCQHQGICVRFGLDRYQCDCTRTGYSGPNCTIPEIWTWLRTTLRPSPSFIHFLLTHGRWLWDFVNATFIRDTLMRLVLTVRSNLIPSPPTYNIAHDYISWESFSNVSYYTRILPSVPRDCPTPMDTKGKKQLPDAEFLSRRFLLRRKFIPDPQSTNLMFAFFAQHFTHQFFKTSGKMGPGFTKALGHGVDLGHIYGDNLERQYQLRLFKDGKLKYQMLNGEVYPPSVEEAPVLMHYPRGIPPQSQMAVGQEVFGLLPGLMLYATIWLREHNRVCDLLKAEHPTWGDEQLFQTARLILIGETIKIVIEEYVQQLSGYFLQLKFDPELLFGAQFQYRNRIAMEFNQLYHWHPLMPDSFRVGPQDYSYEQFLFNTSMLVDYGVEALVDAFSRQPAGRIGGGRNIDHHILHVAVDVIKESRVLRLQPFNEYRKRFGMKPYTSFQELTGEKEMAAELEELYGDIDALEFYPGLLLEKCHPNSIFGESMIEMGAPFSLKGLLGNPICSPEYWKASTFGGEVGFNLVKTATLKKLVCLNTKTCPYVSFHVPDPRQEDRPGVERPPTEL

Rattus norvegicus [2] = assay: Anti-inflammatory activity in rat model of acute inflammation assessed as inhibition of carrageenan-induced paw oedema dosed at equimolar oral dose relative to 10 mg/kg, po indomethacin dosed 1 hr before carrageenan injection and measured 3 hrs after carrageenan injection; format: functional
Mus musculus [3] = assay: Analgesic activity in Swiss albino mouse assessed as reduction in number of writhing episodes at equimolar oral dose relative to 10 mg/kg, po indomethacin measured 30 mins following acetic acid injection; format: functional
Rattus norvegicus [4] = assay: Hepato-toxicity in rat Freund's adjuvant induced arthritis model of chronic inflammation assessed as assessed as SGOT level at equimolar oral dose relative to 10 mg/kg, po indomethacin dosed after 14 days from day of adjuvant injection until day 21 and measured on day 21 (reference value: 92.48 +/- 7.8 U/mL); format: organism-based; settings: in vivo, 336 h
Rattus norvegicus [5] = assay: Toxicity in healthy albino rat assessed as induction of tremors up to 500 mg/kg, po; format: organism-based; settings: in vivo
Rattus norvegicus [6] = assay: Hepato-toxicity in rat Freund's adjuvant induced arthritis model of chronic inflammation assessed as assessed as alkaline phosphatase level at equimolar oral dose relative to 10 mg/kg, po indomethacin dosed after 14 days from day of adjuvant injection until day 21 and measured on day 21 (reference value: 17.82 +/- 1.2 U); format: organism-based; settings: in vivo, 336 h
[7] = In-vitro anti-inflammatory activity assessed as inhibition of denaturation of bovine serum albumin at equimolar dose relative to 10 mg indomethacin; format: functional
Rattus norvegicus [8] = assay: Anti-inflammatory activity in rat Freund's adjuvant induced arthritis model of chronic inflammation assessed as inhibition of right hind paw swelling at equimolar oral dose relative to 10 mg/kg, po indomethacin dosed after 14 days from day of adjuvant injection until day 21 and measured on day 15; format: functional
[9] = Octanol/water partition coefficient, log P of the compound by shake flask method; format: physicochemical
Rattus norvegicus [10] = assay: Toxicity in healthy albino rat assessed as induction of changes in autonomic or behavioural responses up to 500 mg/kg, po; format: organism-based; settings: in vivo
Rattus norvegicus [11] = assay: Toxicity in healthy albino rat assessed as induction of mortality at 500 mg/kg, po measured after 14 days; format: organism-based; settings: in vivo, 336 h
Rattus norvegicus [12] = assay: Toxicity in healthy albino rat assessed as induction of salivation up to 500 mg/kg, po; format: organism-based; settings: in vivo
Mus musculus [13] = assay: Analgesic activity in Swiss albino mouse assessed as reduction in formalin-induced paw licking by measuring time spent on licking during phase-1 at equimolar oral dose relative to 10 mg/kg, po indomethacin dosed 1 hr before formalin challenge and measured 30 mins after formalin injection; format: functional
Rattus norvegicus [14] = assay: Renal toxicity in rat Freund's adjuvant induced arthritis model of chronic inflammation assessed as assessed as blood urea nitrogen level at equimolar oral dose relative to 10 mg/kg, po indomethacin dosed after 14 days from day of adjuvant injection until day 21 and measured on day 21 (reference value: 23.48 +/- 1.8 mg/dL); format: organism-based; settings: in vivo, 336 h
Rattus norvegicus [15] = assay: Anti-inflammatory activity in rat Freund's adjuvant induced arthritis model of chronic inflammation assessed as inhibition of right hind paw swelling at equimolar oral dose relative to 10 mg/kg, po indomethacin dosed after 14 days from day of adjuvant injection until day 21 and measured on day 21; format: functional
Rattus norvegicus [16] = assay: Toxicity in healthy albino rat assessed as induction of sleep up to 500 mg/kg, po; format: organism-based; settings: in vivo
Rattus norvegicus [17] = assay: Anti-inflammatory activity in rat Freund's adjuvant induced arthritis model of chronic inflammation assessed as inhibition of right hind paw swelling at equimolar oral dose relative to 10 mg/kg, po indomethacin dosed after 14 days from day of adjuvant injection until day 21 and measured on day 6; format: functional
Rattus norvegicus [18] = assay: Renal toxicity in rat Freund's adjuvant induced arthritis model of chronic inflammation assessed as assessed as total albumin level at equimolar oral dose relative to 10 mg/kg, po indomethacin dosed after 14 days from day of adjuvant injection until day 21 and measured on day 21 (reference value: 1.77 +/- 0.12 g/dL); format: organism-based; settings: in vivo, 336 h
Rattus norvegicus [19] = assay: Anti-inflammatory activity in rat model of acute inflammation assessed as inhibition of carrageenan-induced paw oedema dosed at equimolar oral dose relative to 10 mg/kg, po indomethacin dosed 1 hr before carrageenan injection and measured 5 hrs after carrageenan injection relative to 10 mg/kg, po indomethacin; format: functional
Rattus norvegicus [20] = assay: Toxicity in healthy albino rat assessed as induction of coma up to 500 mg/kg, po; format: organism-based; settings: in vivo
Rattus norvegicus [21] = assay: Anti-inflammatory activity in rat model of acute inflammation assessed as inhibition of carrageenan-induced paw oedema dosed at equimolar oral dose relative to 10 mg/kg, po indomethacin dosed 1 hr before carrageenan injection and measured 2 hrs after carrageenan injection; format: functional
Rattus norvegicus [22] = assay: Anti-inflammatory activity in rat model of acute inflammation assessed as inhibition of carrageenan-induced paw oedema dosed at equimolar oral dose relative to 10 mg/kg, po indomethacin dosed 1 hr before carrageenan injection and measured 6 hrs after carrageenan injection; format: functional
Rattus norvegicus [23] = assay: Anti-inflammatory activity in rat model of acute inflammation assessed as inhibition of carrageenan-induced paw oedema dosed at equimolar oral dose relative to 10 mg/kg, po indomethacin dosed 1 hr before carrageenan injection and measured 4 hrs after carrageenan injection; format: functional
Rattus norvegicus [24] = assay: Anti-inflammatory activity in rat assessed as inhibition of arachidonic acid-induced paw edema dosed at equimolar oral dose relative to 10 mg/kg, po indomethacin dosed 30 mins before arachidonic acid injection and measured 1 hr after arachidonic acid injection; format: functional
Mus musculus [25] = assay: Analgesic activity in Swiss albino mouse assessed as reduction in formalin-induced paw licking by measuring time spent on licking during phase-2 at equimolar oral dose relative to 10 mg/kg, po indomethacin dosed 1 hr before formalin challenge and measured 30 mins after formalin injection; format: functional
Rattus norvegicus [26] = assay: Anti-inflammatory activity in rat Freund's adjuvant induced arthritis model of chronic inflammation assessed as inhibition of right hind paw swelling at equimolar oral dose relative to 10 mg/kg, po indomethacin dosed after 14 days from day of adjuvant injection until day 21 and measured on day 12; format: functional

Row | Structure (SMILES) | IC50 [1] | inhibition (INH) (Rattus norvegicus [2]) | inhibition (INH) (Mus musculus [3]) | Activity (Rattus norvegicus [4]) | Activity (Rattus norvegicus [5]) | Activity (Rattus norvegicus [6]) | inhibition [7] | inhibition (INH) (Rattus norvegicus [8]) | logP [9] | Activity (Rattus norvegicus [10]) | Activity (Rattus norvegicus [11]) | Activity (Rattus norvegicus [12]) | inhibition (INH) (Mus musculus [13]) | Activity (Rattus norvegicus [14]) | inhibition (INH) (Rattus norvegicus [15]) | Activity (Rattus norvegicus [16]) | inhibition (INH) (Rattus norvegicus [17]) | Activity (Rattus norvegicus [18]) | inhibition (INH) (Rattus norvegicus [19]) | Activity (Rattus norvegicus [20]) | other results
1 | Nc1ccc(-c2nnc(Cn3nc(-c4ccccc4)c(-c4ccccc4)nc3=O)o2)cc1 | 43.4 µM | 51.89% | 71.85% | 98.21 U/ml | Non-toxic | 20.64 U | 80.3% | 47.9% | 3.72 | Non-toxic | Non-toxic | Non-toxic | 12.45% | 33.85 mg/dL | 52.21% | Non-toxic | 36.5% | 1.87 g/dL | 93.92% | Non-toxic | inhibition (INH) (Rattus norvegicus [21]): 41.76%; inhibition (INH) (Rattus norvegicus [22]): 55.96%; inhibition (INH) (Rattus norvegicus [23]): 56.96%; inhibition (INH) (Rattus norvegicus [24]): 16.45%; inhibition (INH) (Mus musculus [25]): 74.57%; inhibition (INH) (Rattus norvegicus [26]): 45.8%
2 | O=c1nc(-c2ccccc2)c(-c2ccccc2)nn1Cc1nnc(-c2ccc(O)cc2O)o1 | 43.3 µM | 53.27% | 72.4% | 99.35 U/ml | Non-toxic | 19.56 U | 80.8% | 49.82% | 3.46 | Non-toxic | Non-toxic | Non-toxic | 10.73% | 38.67 mg/dL | 54.25% | Non-toxic | 37.61% | 1.82 g/dL | 94.3% | Non-toxic | inhibition (INH) (Rattus norvegicus [21]): 44.47%; inhibition (INH) (Rattus norvegicus [22]): 57.56%; inhibition (INH) (Rattus norvegicus [23]): 59.74%; inhibition (INH) (Rattus norvegicus [24]): 19.19%; inhibition (INH) (Mus musculus [25]): 75.21%; inhibition (INH) (Rattus norvegicus [26]): 43.97%
3 | O=c1nc(-c2ccccc2)c(-c2ccccc2)nn1Cc1nnc(-c2ccc(Cl)cc2)o1 | 44.2 µM | 51.32% | 73.26% | 107.18 U/ml | Non-toxic | 20.28 U | 78.2% | 45.86% | 3.91 | Non-toxic | Non-toxic | Non-toxic | 12.11% | 42.28 mg/dL | 51.98% | Non-toxic | 35.28% | 1.8 g/dL | 92.02% | Non-toxic | inhibition (INH) (Rattus norvegicus [21]): 39.28%; inhibition (INH) (Rattus norvegicus [22]): 55.47%; inhibition (INH) (Rattus norvegicus [23]): 54.99%; inhibition (INH) (Rattus norvegicus [24]): 17.58%; inhibition (INH) (Mus musculus [25]): 75.85%; inhibition (INH) (Rattus norvegicus [26]): 43.36%
4 | O=c1nc(-c2ccccc2)c(-c2ccccc2)nn1Cc1nnc(-c2ccc([N+](=O)[O-])cc2)o1 | 44.8 µM | 49.6% | 74.84% | 102.38 U/ml | Non-toxic | 19.92 U | 78.4% | 43.82% | 3.71 | Non-toxic | Non-toxic | Non-toxic | 13.68% | 39.24 mg/dL | 49.7% | Non-toxic | 36.13% | 1.83 g/dL | 89.33% | Non-toxic | inhibition (INH) (Rattus norvegicus [21]): 41.42%; inhibition (INH) (Rattus norvegicus [22]): 52.27%; inhibition (INH) (Rattus norvegicus [23]): 54.76%; inhibition (INH) (Rattus norvegicus [24]): 12.26%; inhibition (INH) (Mus musculus [25]): 78.04%; inhibition (INH) (Rattus norvegicus [26]): 41.78%
